Test results reported in patent publication US9261497B2, “Method of treating cancer with modulators of SCFSkp2” (New York University, priority 2012, dated 2016).

Legend:
ARP-1 = experiment: Viable cells, multiple myeloma ARP-1; assay type: cell-based, human; details: 24 hours
Protocol: (§1) Viable and metabolically active cells were assayed using CellTiter-Blue (Promega) or PrestoBlue (Invitrogen) following manufacturer's instruction. In a 96 well plate format, 15×10^3 cells were pretreated with 0.1% Vehicle or increasing concentration of inhibitors as noted (for 16 h, 24 h, 48 h, and/or 72 hr) and fluorescence was detected on the SpectraMax M2e (Molecular Devices) after 30 min incubation with dye.

KSM-11 = experiment: Viable cells, multiple myeloma KSM-11; assay type: cell-based, human; details: 24 hours
Protocol: as §1

His-6Skp1-Skp2-Cks1 = target: T1, His-6Skp1-Skp2-Cks1 (Homo sapiens, UniProt P61024+Q13309); experiment: Differential scanning fluorimetry (protein melt); assay type: binding; details: compound 75 μM; protein 1.5 μM
T1 construct: His6-tagged human Skp2 (residues 89-424); Human full-length Cks1 was produced as described; made in house
T1 sequence (Q13309 89-424 limits assumed): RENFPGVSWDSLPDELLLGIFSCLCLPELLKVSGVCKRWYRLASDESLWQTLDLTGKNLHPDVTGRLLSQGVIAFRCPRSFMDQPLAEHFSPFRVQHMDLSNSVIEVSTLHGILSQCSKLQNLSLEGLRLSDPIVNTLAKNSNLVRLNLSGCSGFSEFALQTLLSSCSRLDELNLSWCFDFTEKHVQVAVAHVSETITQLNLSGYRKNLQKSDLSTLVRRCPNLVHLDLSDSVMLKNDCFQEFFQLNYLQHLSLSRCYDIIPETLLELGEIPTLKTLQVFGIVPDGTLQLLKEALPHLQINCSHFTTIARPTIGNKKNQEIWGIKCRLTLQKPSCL
T1 sequence (P61024 whole entry, the tested form may be a part): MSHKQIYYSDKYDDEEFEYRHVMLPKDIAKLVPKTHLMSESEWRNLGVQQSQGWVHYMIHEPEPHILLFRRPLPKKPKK
Protocol: Protein melt assays were carried out following the manufacturer's protocol on the LightCycler 480 System II (Roche) using Sypro Orange dye (Sigma). Fluorescence (465 nm excitation/580 nm detection) was acquired (10 data points/sec) at a ramp rate of 0.06° C./sec between 20° C. and 85° C. Melting temperatures were calculated using the LightCycler 480 Protein Melt analysis tool (Roche).

MCF-7 = experiment: Viable and metabolically active cells, MCF-7; assay type: cell-based, human; details: 16 h
Protocol: as §1

JeKo-1 = experiment: Cell viability, JeKo-1 mantle cell lymphoma; assay type: cell-based, human; details: 24 hours, CalcuSyn
Protocol: as §1

ECC-1 cells = experiment: ECC-1 cell proliferation (MTS assay); assay type: cell-based, human; details: for Inhibition of cellular proliferation over the Vehicle control: 10 μM (FIG. 13A); for Blocking E2-induced proliferation: compound plus E2 (FIG. 14D)
p27 in primary ECA cells = experiment: p27 immunoblot in primary endometrial carcinoma (ECA) cells; details: 10 μM for 18 h; for Increase of p27 levels over the Vehicle-treated control: grade I, total cell lysates; for Decrease of p27 in the cytoplasm / Increase of nuclear p27: grade II type I
Protocol: The endometrial carcinoma cell line (derived from a well-differentiated endometrioid Type I ECA) ECC-1 cells (ATCC, Manassas, Va.) were plated at a density of 3×10^5/well/6-well plate and grown in DMEM:F12 supplemented with 10% FBS (BioWest, Ocala, Fla.). The cell line was passaged in the laboratory for fewer than 6 months after receipt. […] ECAs were plated at a density of 2.2×10^6 cells/6-well Primaria® plates (BD Biosciences, San Jose, Calif.) in McCoys 5A media without phenol red containing 10% charcoal-stripped FBS, 2 mM L-Glutamine (Invitrogen) and antimycotic antibiotic solution (Mediatech, Hendon, Va.).
For subcellular fractionation, following treatments, cells were separated into nuclear and cytoplasmic fractions using the NE-PER kit (Thermo Scientific), and 10 μg cytoplasmic and nuclear protein fractions were loaded onto SDS-PAGE for immunoblotting. […] The membranes were incubated with peroxidase-conjugated goat anti-rabbit or goat anti-mouse secondary antibodies in TBST (1:2000; Thermo Scientific). […] Protein bands were resolved using the SuperSignal West Dura kit (Thermo Scientific), visualized by exposure to X-ray film (HyBlot; Denville Scientific, Denville, N.J.), and following densitometric scanning (Kodak Logic-100), the protein bands were quantified by normalizing to β-actin and compared to the untreated control, and the values represented by the graphs of relative protein levels compared to actin in each well and shown as % of Vehicle control.

LNCaP = experiment: Cell cycle FACS analysis, LNCaP; assay type: cell-based, human; details: 10 μM for 16 hours
Protocol: Whole cell extracts were prepared and immunoblotted as previously described Dorrello et al., “S6K1- and betaTRCP-mediated Degradation of PDCD4 Promotes Protein Translation and Cell Growth,” Science 314:467-471 (2006), which is hereby incorporated by reference in its entirety. For knockdown of Skp2 or p27, shRNAs were induced with 2 ng/ml doxycycline for 48 hours, with the last 16 hours co-treated with 0.1% Vehicle or 10 μM inhibitors as indicated. For cycloheximide chase, cells were pretreated 16 h with 0.1% Vehicle or 10 μM inhibitors, followed by 20 ng/ml cycloheximide (Sigma) and whole cell extracts collected for each time point. Scanning densitometry was performed on immunoblots using Image J software. For cell cycle analysis, cells were treated with 0.1% Vehicle or 10 μM inhibitors for 16 h. 1×10^6 cells were fixed in 70% ethanol for 2 h, treated with 200 μg/ml RNase A (Invitrogen) for 30 minutes, and stained with 20 μg/ml Propidium Iodine (Sigma). All samples were assayed in triplicates. Signal was detected using the Becton Dickson LSRII flow cytometer and cell cycle profiles were analyzed with FloJo.

p27 in 501 Mel cells = experiment: Cycloheximide p27 half-life in 501 Mel cells; assay type: cell-based, human; details: pretreated 16 hours with 10 μM inhibitor, vehicle half-life 1 hour
Protocol: To assess the mechanism of p27 induction, cycloheximide half-lives were analyzed in 501 Mel cell lines pretreated with each inhibitor (10 μM) or 0.1% DMSO (vehicle). p27 degraded rapidly with a half-life of 1 hour with vehicle, and this rate was slowed by the inhibitors (FIG. 4C). […] Protein levels of Skp2 and Skp1 remained constant.
Whole cell extracts were prepared and immunoblotted as previously described Dorrello et al., “S6K1- and betaTRCP-mediated Degradation of PDCD4 Promotes Protein Translation and Cell Growth,” Science 314:467-471 (2006), which is hereby incorporated by reference in its entirety. For knockdown of Skp2 or p27, shRNAs were induced with 2 ng/ml doxycycline for 48 hours, with the last 16 hours co-treated with 0.1% Vehicle or 10 μM inhibitors as indicated. For cycloheximide chase, cells were pretreated 16 h with 0.1% Vehicle or 10 μM inhibitors, followed by 20 ng/ml cycloheximide (Sigma) and whole cell extracts collected for each time point. 20 ng/ml cycloheximide (Sigma) was added to each plate and whole cell extract was collected for each time point. Scanning densitometry was performed on immunoblots using Image J software. For cell cycle analysis, cells were treated with 0.1% Vehicle or 10 μM inhibitors for 16 h. […] Signal was detected using the Becton Dickson LSRII flow cytometer and cell cycle profiles were analyzed with FloJo.

[1] = target: T2, His6-Skp2-Skp1-Cks1 complex (Homo sapiens, UniProt P61024+Q13309); experiment: Surface plasmon resonance (SPR); assay type: binding; details: 1:1 interaction model; 25° C.
T2 construct: His6-tagged human Skp2 (residues 89-424); Human full-length Cks1 was produced as described; made in house
T2 sequence (Q13309 89-424 limits assumed): as the sequence (Q13309 89-424 limits assumed) above
T2 sequence (P61024 whole entry, the tested form may be a part): as the sequence (P61024 whole entry, the tested form may be a part) above

IC50 (ARP-1) [µM]	IC50 (KSM-11) [nM]	Shift of melting temperature (Tm) of purified protein complex (His-6Skp1-Skp2-Cks1)	SMILES	Rate of active cells (MCF-7)	IC50 (JeKo-1) [µM]	Inhibition of cellular proliferation over the Vehicle control (ECC-1 cells) [%]	EC50 (ECC-1 cells; Hillslope method, read-out: EC50 inhibiting proliferation) [µM]	Blocking E2-induced proliferation (ECC-1 cells)	Increase of p27 levels over the Vehicle-treated control (p27 in primary ECA cells) [fold]	Decrease of p27 in the cytoplasm (p27 in primary ECA cells)	Increase of nuclear p27 (p27 in primary ECA cells) [%]	G1 cells (LNCaP)	S phase cells (LNCaP)	p27 half-life (p27 in 501 Mel cells) [h]	Kd [1] [µM]
3.84	1840	shifted the melting temperature	O=C(O)COc1ccc(Br)cc1C=C1SC(=S)N(Cc2cccnc2)C1=O [Compound C1]	a lower rate of active cells	4.8	–	–	–	–	–	–	–	–	–	–
–	–	–	COC(=O)C1=C(C)N(c2ccc(Br)cc2)C(=O)C1=Cc1ccccc1O [Compound C2]	–	9.3	33	14.3	equal to the effect of blocking ER activation with ICI 182,780	1.9	approximately 25%	67	a mild, but significant, increase in G1 cells	a reduction in S phase cells	–	–
–	–	–	O=C(O)COc1ccc(C=C2SC(=O)N(CC(=O)c3ccc(Cl)cc3)C2=O)cc1 [Compound C16]	–	–	–	–	–	–	–	–	–	–	3	–
–	–	–	O=C(NN=Cc1cc(Br)cc(Br)c1O)C(=Cc1ccccc1O)NC(=O)c1ccccc1 [Compound C20]	–	–	30	–	equal to the effect of blocking ER activation with ICI 182,780	3	approximately 25%	46	–	–	5	47 ± 14
